Measured values: PMC3950666, “Cellular trafficking determines the exon skipping activity of Pip6a-PMO in mdx skeletal and cardiac muscle cells” (Nucleic Acids Research, 2013)
Read-outs that look alike come from different tables or passages of the source.

What was measured:
[1] = 1 µM concentration; cited from earlier work
Text: A full comparison of EC50 values is difficult since ...

H2k mdx myotubes = experiment: Cellular uptake by fluorescence spectroscopy in H2k mdx myotubes
Procedure: After incubation with 3′-fluorescein labelled Pip6a-PMO or 3′-fluorescein-labelled PMO, cells were washed twice with PBS and lysed with 300 µl GLB buffer (Promega). In all, 100 µl of the lysate were transferred into black non-binding 96-well plates (Greiner) and fluorescence was measured on a Tecan plate reader (Ex 485 nm/Em 520 nm). Protein concentration was measured by a BCA kit (Pierce) on a Tecan plate reader (Abs 560 nm).

[2] = system: dystrophin pre-mRNA exon 23 in C2C12 myotubes; experiment: Exon 23 skipping by nested RT-PCR in differentiated C2C12 myotubes; format: cell-based, mouse; conditions: serum-containing transfection media, 24 h post-treatment
Procedure: Figure S3. Exon skipping efficiency of Pip6a-PMO in C2C12 skeletal muscle cells. C2C12 cells were differentiated for 6 days and thereafter incubated with Pip6a-PMO under serum condition (+S). Transfections were carried out for 4 h under serum conditions and cells were incubated further with serum-containing medium for 20 h. Exon skipping efficiency was evaluated on pre-mRNA levels by nested RT-PCR. Products were separated by gel electrophoresis and exon skipping values were derived from densitometric analysis. (Percentage of exon skipping (%ES) calculated as described in Figure S1 with n≥4).

[3] = system: dystrophin pre-mRNA exon 23 in primary mdx cardiomyocytes; experiment: Exon 23 skipping by nested RT-PCR in primary mdx cardiomyocytes; format: cell-based, mouse
[4] = system: dystrophin pre-mRNA exon 23 in H2k mdx myoblasts; experiment: Exon 23 skipping by nested RT-PCR in undifferentiated H2k mdx myoblasts; format: cell-based, mouse
[5] = system: dystrophin pre-mRNA exon 23 in H2k mdx myotubes; experiment: Exon 23 skipping by nested RT-PCR in differentiated H2k mdx myotubes; format: cell-based, mouse
[6] = system: dystrophin pre-mRNA exon 23 in primary wild-type cardiomyocytes; experiment: Exon 23 skipping by nested RT-PCR in primary wild-type cardiomyocytes; format: cell-based, mouse; conditions: for %ES (percentage of exon skipping): 1000 nM, WT (healthy) cardiomyocytes, serum-containing medium, 24 h post-treatment, n ≥ 4

(RXRRBR)2 [B-PMO, PMO covalently linked to the (RXRRBR)2 B-peptide, previously described PPMO]
reported exon-skipping level [1]: ~45%

Ac-RXRRBRRXRYQFLIRXRBRXRB-OH [Pip6a-PMO, Pip6a peptide conjugated by amide linkage to the 5′-amino linker of the PMO; carries 3′-fluorescein label unless mentioned as unlabelled]
effect of EIPA on cellular delivery and exon-skipping activity (H2k mdx myotubes; 250 nM, 4 h, EIPA 10 µM, 30 min pre-treatment, n ≥ 4): only negligible effects | effect of CPZ on cellular delivery and exon-skipping activity (H2k mdx myotubes; 250 nM, 4 h, chlorpromazine 30 µM, 30 min pre-treatment, n ≥ 4): only negligible effects | effect of nystatin on uptake and exon 23-skipping efficiency (H2k mdx myotubes; 250 nM, 4 h, nystatin 50 µM, 30 min pre-treatment, n ≥ 4): pronounced effect | increase of uptake in myotubes versus myoblasts (H2k mdx myotubes; H2k mdx cells, 4 h incubation, fluorescence spectroscopy): 2 fold | EC50 [2]: 107 nM | EC50 ([3]; primary cardiomyocytes from neonatal mdx and wild-type mice, not distinguished, approximate): ~1000 nM | EC50 in H2k mdx myoblasts relative to H2k mdx myotubes ([4]; 183 nM in myoblasts compared with myotubes): ~6 times | EC50 ([4]; undifferentiated H2k mdx myoblasts, data not shown): 183 nM | exon skipping ([5]; 1 µM, statement of the discussion): complete exon skipping | EC50 ([5]; 48 h post-treatment (4 h transfection, then 44 h serum-containing medium), serum condition (+S), read-out: EC50 at 48 h (exon 23 skipping)): 20 nM | EC50 ([5]; serum-free medium (-S), 24 h post-treatment, Prism 5.0 after normalization of the Δ23 skipping, read-out: EC50 (concentration required to achieve 50% exon 23 skipping)): 41 nM | EC50 ([5]; serum-supplemented transfection medium (+S), 24 h post-treatment, Prism 5.0 after normalization, read-out: EC50 (exon 23 skipping)): 30 nM | %ES (percentage of exon skipping) [6]: 44% | change of exon skipping with 48 h incubation ([6]; 48 h post-treatment compared with 24 h, primary wild type cardiomyocytes, Supplementary Figure S7): did not increase significantly

PMO: phosphorodiamidate morpholino oligomer 5′-GGCCAAACCTCGGCTTACCTGAAAT-3′ with 5′-amino linker and 3′-fluorescein label, Gene Tools (morpholino, 5'-amino linker, 3'-fluorescein, chemistry not fully specified) [reference compound]
cellular uptake (fluorescence) (H2k mdx myotubes; 1000 nM, 4 h incubation, cell lysate fluorescence Ex 485 nm/Em 520 nm): no uptake | %ES (percentage of exon skipping) ([3]; 1000 nM, mdx cardiomyocytes, serum-containing medium, 24 h post-treatment, n ≥ 4, listed as naked PMO): failed to induce any exon skipping | %ES (percentage of exon skipping) ([6]; listed as naked PMO): failed to induce any exon skipping
